Experimental data reported in patent publication US12240827B2, “Serotonin 5-HT2B inhibitory compounds” (Zoetis Services LLC, priority 2019, dated 2025).

Assays:
[1] = target: T1, canine 5-HT2B receptor (Canis lupus familiaris, UniProt Q50DZ8); experiment: Canine 5-HT2B (c5-HT2B) in-vitro assay, FLIPR calcium response; assay type: cell-based; settings: CHO-K1 cells stably expressing canine 5-HT2B receptor; inhibition of EC80 serotonin calcium response
T1 construct: expressed in transfected cells; host or cells: CHO-K1
Method: CHO-K1 cells stably expressing the canine 5-HT2B receptor were seeded at 20,000 cells per well in 20 μl culture media (DMEM with GlutaMAX™ high glucose+5% dialyzed FBS+10 mM HEPES+1×MEM Non-Essential Amino Acids of a 384-well black plate with clear bottom for at least 18 hours at 37° C. and 5% CO2. The cell plate was loaded with 20 μl/well of the FLIPR® Calcium 5 Assay kit prepared in HBSS containing calcium and magnesium supplemented with 20 mM HEPES and 5 mM Probenecid at pH 7.4 and incubated at 37° C. and 5% CO2 for 30 minutes and then an additional 30 minutes at room temperature. The intracellular calcium response was measured using the FLIPR Tetra® instrument measuring the kinetic response of the Calcium 5 dye at an excitation wavelength of 470-495 nm and emission wavelength of 515-575 nm at room temperature. The cells were initially challenged with a 5× concentration of the antagonist (10 μl/well) after an initial baseline recording and the calcium response was recorded for almost 2 minutes. After the completion of the initial antagonist challenge, the cell plate was incubated at room temperature in the FLIPR Tetra® instrument for 10 minutes. Finally, a second kinetic assay was performed after the 10 minute incubation at room temperature to measure the inhibitory response of the EC80 concentration of serotonin (15 μl/well) after an initial baseline recording. The IC50 concentration was determined for each antagonist tested.

[2] = target: T2, hERG (Homo sapiens, UniProt Q12809); experiment: hERG in-vitro assay, IonWorks Barracuda population patch clamp; assay type: cell-based; settings: hERG/HEK293 cells; hERG current block, 5 minutes exposure
T2 construct: stably transfected with full length hERG cDNA; expressed in transfected cells; host or cells: HEK293
Method: Stock solutions of compounds of the invention and positive control (cisapride; 0.001-3 μM) were prepared in DMSO. Stock solutions were diluted in a HEPES-buffered physiological saline solution. Test and control solutions contained 0.3% DMSO. Human hERG/HEK293 renal epithelial cells stably transfected with full length hERG cDNA were cultured in Dulbecco's Modified Eagle Medium/Nutrient Mixture F-12 (D-MEM/F-12) supplemented with 10% fetal bovine serum, 100 U/mL penicillin G sodium, 100 μg/mL streptomycin sulfate and 500 μg/mL G418. Before testing, cells in culture dishes were rinsed with Hank's Balanced Salt Solution (HBSS) and detached with accutase. Immediately before use in the IonWorks Barracuda™ system, the cells were washed with buffered physiological saline solution (HB-PS) buffer to remove the accutase and re-suspended in 5 mL of HB-PS. The test article effects were evaluated using IonWorks Barracuda™ systems (Molecular Devices Corporation, Union City, CA). HEPES-buffered intracellular solution for whole cell recordings was loaded into the intracellular compartment of the Population Patch Clamp™ (PPC) planar electrode.
Extracellular buffer (HB-PS) was loaded into PPC planar electrode plate wells (11 μL/well). The cell suspension was pipetted into the wells of the PPC planar electrode (9 μL/well). After establishment of a whole-cell configuration (the perforated patch), membrane currents were recorded using patch clamp amplifier in the IonWorks Barracuda™ system. The current recordings were performed one (1) time before test article application to the cells (baseline) and one (1) time after application of the test article. Test article concentrations were applied to naïve cells. Each application consisted of addition of 20 μL of 2× concentrated test article solution to the total 40 μL of final volume of the extracellular well of the PPC plate. Duration of exposure to each compound concentration was five (5) minutes. hERG current was elicited using a pulse pattern with fixed amplitudes (the first conditioning pre-pulse to 10 mV for 60 second, the second conditioning pre-pulse: −90 mV for 20 ms; the test pulse: +40 mV for 100 ms) from a holding potential of 0 mV (‘zero holding’ procedure). hERG current was measured as a difference between the peak current at 1 ms and at the end of test step to +40 mV. Data acquisition and analyses were performed using the IonWorks Barracuda™ system operation software (version 2.0.2). The decrease in current amplitude after test article application was used to calculate the percent block relative to control. Results for each test article concentration (n≥1) were averaged; the mean and standard deviation values were calculated and used to generate dose-response curves.

T2 sequence (Q12809 whole entry): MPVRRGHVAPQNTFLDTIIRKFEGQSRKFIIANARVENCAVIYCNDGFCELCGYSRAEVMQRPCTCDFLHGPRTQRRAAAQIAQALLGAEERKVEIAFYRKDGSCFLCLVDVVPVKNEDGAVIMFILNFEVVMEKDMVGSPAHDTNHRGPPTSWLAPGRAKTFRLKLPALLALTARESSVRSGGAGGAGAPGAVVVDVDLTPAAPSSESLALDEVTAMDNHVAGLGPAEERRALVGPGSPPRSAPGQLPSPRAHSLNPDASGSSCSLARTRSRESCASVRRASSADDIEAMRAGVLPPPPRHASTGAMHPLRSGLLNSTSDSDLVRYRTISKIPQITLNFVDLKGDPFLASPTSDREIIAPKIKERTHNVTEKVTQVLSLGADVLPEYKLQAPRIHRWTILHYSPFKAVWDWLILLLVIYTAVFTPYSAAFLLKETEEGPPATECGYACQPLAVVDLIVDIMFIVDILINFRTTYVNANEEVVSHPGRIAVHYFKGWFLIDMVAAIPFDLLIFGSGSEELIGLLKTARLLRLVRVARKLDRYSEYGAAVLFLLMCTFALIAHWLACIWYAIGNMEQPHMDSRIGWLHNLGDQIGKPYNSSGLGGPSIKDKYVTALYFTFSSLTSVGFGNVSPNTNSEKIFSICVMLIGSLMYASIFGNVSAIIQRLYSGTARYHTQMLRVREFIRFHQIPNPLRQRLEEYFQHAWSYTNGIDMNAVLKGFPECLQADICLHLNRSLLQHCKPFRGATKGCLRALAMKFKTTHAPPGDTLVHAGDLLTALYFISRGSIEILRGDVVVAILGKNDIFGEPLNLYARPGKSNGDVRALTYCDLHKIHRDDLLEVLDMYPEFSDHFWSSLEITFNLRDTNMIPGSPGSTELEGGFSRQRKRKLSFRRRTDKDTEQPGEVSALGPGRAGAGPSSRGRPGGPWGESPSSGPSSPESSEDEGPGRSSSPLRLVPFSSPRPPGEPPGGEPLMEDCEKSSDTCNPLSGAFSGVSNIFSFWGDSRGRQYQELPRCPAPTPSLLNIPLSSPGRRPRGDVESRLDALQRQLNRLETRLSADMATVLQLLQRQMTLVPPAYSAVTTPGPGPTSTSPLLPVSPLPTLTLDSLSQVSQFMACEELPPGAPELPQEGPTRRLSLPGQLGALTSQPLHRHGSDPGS
T1 sequence (Q50DZ8 1-434): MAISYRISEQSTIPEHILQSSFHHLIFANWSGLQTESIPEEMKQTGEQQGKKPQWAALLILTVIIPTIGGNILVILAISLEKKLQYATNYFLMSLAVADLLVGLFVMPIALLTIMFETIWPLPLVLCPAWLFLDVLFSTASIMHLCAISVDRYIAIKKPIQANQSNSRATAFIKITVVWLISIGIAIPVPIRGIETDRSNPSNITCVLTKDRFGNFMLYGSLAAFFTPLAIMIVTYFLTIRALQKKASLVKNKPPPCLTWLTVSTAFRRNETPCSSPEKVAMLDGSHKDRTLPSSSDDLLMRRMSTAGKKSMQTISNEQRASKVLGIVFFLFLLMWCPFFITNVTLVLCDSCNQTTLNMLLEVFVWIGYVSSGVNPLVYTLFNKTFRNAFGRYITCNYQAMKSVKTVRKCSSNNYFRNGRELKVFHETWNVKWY

| SMILES | IC50 [1] [nM] | IC50 [2] [nM] |
| --- | --- | --- |
| N#Cc1ccc(-c2ccc(C(=O)N3CCC(c4ncc[nH]4)CC3)cc2)cc1 [CA-5, 4′-(4-(1H-imidazol-2-yl)piperidine-1-carbonyl)-[1,1′-biphenyl]-4-carbonitrile, reference compound] | 453 | 54 |
| Cc1c[nH]c(C2CCN(C(=O)c3ccc(-c4ccc(F)cc4)cc3)CC2)n1 [CA-6, (4′-fluoro-[1,1′-biphenyl]-4-yl)(4-(4-methyl-1H-imidazol-2-yl)piperidin-1-yl)methanone, reference compound] | 7.3 | < 30 |
| O=C(c1ccc(-c2ccc(F)cc2)cc1)N1CCC(Nc2ncc[nH]2)CC1 [Example 1, (4-((1H-imidazol-2-yl)amino)piperidin-1-yl)(4′-fluoro-[1,1′-biphenyl]-4-yl)methanone] | 2 | 1540 |
| CS(=O)(=O)c1cccc(-c2ccc(C(=O)N3CCC(c4ncc[nH]4)CC3)cc2)c1 [Example 2, (4-(1H-imidazol-2-yl)piperidin-1-yl)(3′-(methylsulfonyl)-[1,1′-biphenyl]-4-yl)methanone] | 52.3 | 72300 |
| O=C(c1ccc(-c2ccc(C(F)(F)F)cc2)cc1)N1CCC(c2ncc[nH]2)CC1 [Example 3, (4-(1H-imidazol-2-yl)piperidin-1-yl)(4′-(trifluoromethyl)-[1,1′-biphenyl]-4-yl)methanone] | 5.1 | 3480 |
| Cc1cnc(C2CCN(C(=O)c3ccc(-c4ccc(C(F)(F)F)cc4)cc3)CC2)[nH]1 [Example 4, (4-(5-methyl-1H-imidazol-2-yl)piperidin-1-yl)(4′-(trifluoromethyl)-[1,1′-biphenyl]-4-yl)methanone] | 21.9 | 1130 |
| O=C(c1ccc(-c2ccc(C(F)(F)F)cc2)cc1)N1CCC(Nc2ncc[nH]2)CC1 [Example 7, (4-((1H-imidazol-2-yl)amino)piperidin-1-yl)(4′-(trifluoromethyl)-[1,1′-biphenyl]-4-yl)methanone] | 30.2 | 2500 |
| O=C(c1ccc(-c2ccccc2)nc1)N1CCC(c2ncc[nH]2)CC1 [Example 11, (4-(1H-imidazol-2-yl)piperidin-1-yl)(6-phenylpyridin-3-yl)methanone] | 4.5 | 3280 |
| O=C(c1ccc(-c2ccc(C(F)(F)F)cc2)cc1)N1CCC(Cc2ncc[nH]2)CC1 [Example 12, (4-((1H-imidazol-2-yl)methyl)piperidin-1-yl)(4′-(trifluoromethyl)-[1,1′-biphenyl]-4-yl)methanone] | 63.9 | 4840 |
| O=C(c1ccc(-c2ccc3c(c2)OCO3)cc1)N1CCC(c2ncc[nH]2)CC1 [Example 13, (4-(1H-imidazol-2-yl)piperidin-1-yl)(4-(benzo[d][1,3]dioxol-5-yl)phenyl)methanone] | 1.4 | 1730 |
| O=C(c1ccc2c(c1)[nH]c1ccccc12)N1CCC(c2ncc[nH]2)CC1 [Example 14, (4-(1H-imidazol-2-yl)piperidin-1-yl)(9H-carbazol-2-yl)methanone] | 1.3 | 5720 |
| O=C(c1ccc2c(c1)oc1ccccc12)N1CCC(c2ncc[nH]2)CC1 [Example 15, (4-(1H-imidazol-2-yl)piperidin-1-yl)(dibenzo[b,d]furan-3-yl)methanone] | 0.65 | 2010 |
| O=C(c1ccc(-c2cccc(C(F)(F)F)c2)cc1)N1CCC(c2ncc[nH]2)CC1 [Example 19, (4-(1H-imidazol-2-yl)piperidin-1-yl)(3′-(trifluoromethyl)-[1,1′-biphenyl]-4-yl)methanone] | 0.89 | 1470 |
| O=C(c1ccc2c(ccn2-c2ccccc2)c1)N1CCC(c2ncc[nH]2)CC1 [Example 21, (4-(1H-imidazol-2-yl)piperidin-1-yl)(1-phenyl-1H-indol-5-yl)methanone] | 3.1 | 4310 |

Continued, in another order:

| IC50 [1] [nM] | SMILES | IC50 [2] [nM] |
| --- | --- | --- |
| 0.3 | O=C(c1ccc(-c2ccc(F)cc2)cc1)N1CCC(Cc2ncc[nH]2)CC1 [CA-1, (4-((1H-imidazol-2-yl)methyl)piperidin-1-yl)(4′-fluoro-[1,1′-biphenyl]-4-yl)methanone, reference compound] | 546 |
| 0.64 | O=C(c1ccc(-c2ccccc2)cc1)N1CCC(c2ncc[nH]2)CC1 [CA-3, (4-(1H-imidazol-2-yl)piperidin-1-yl)([1,1′-biphenyl]-4-yl)methanone, reference compound] | 611 |
| 0.08 | O=C(c1ccc(-c2ccc(F)cc2)cc1)N1CCC(c2ncc[nH]2)CC1 [CA-4, (4-(1H-imidazol-2-yl)piperidin-1-yl)(4′-fluoro-[1,1′-biphenyl]-4-yl)methanone, reference compound] | < 30 |
| 0.09 | O=C(c1ccc(-c2ccccc2F)cc1)N1CCC(c2ncc[nH]2)CC1 [CA-7, (4-(1H-imidazol-2-yl)piperidin-1-yl)(2′-fluoro-[1,1′-biphenyl]-4-yl)methanone, reference compound] | 1100 |
| 0.33 | Cc1cnc(C2CCN(C(=O)c3ccc(-c4c[nH]c5ccccc45)cc3)CC2)[nH]1 [Example 5, (4-(1H-indol-3-yl)phenyl)(4-(5-methyl-1H-imidazol-2-yl)piperidin-1-yl)methanone] | 6630 |
| 0.65 | Cc1cnc(C2CCN(C(=O)c3ccc(-c4n[nH]c5ccccc45)cc3)CC2)[nH]1 [Example 6, (4-(1H-indazol-3-yl)phenyl)(4-(5-methyl-1H-imidazol-2-yl)piperidin-1-yl)methanone] | 35500 |
| 0.64 | O=C(c1ccc(Oc2ccccc2)cc1)N1CCC(c2ncc[nH]2)CC1 [Example 8, (4-(1H-imidazol-2-yl)piperidin-1-yl)(4-phenoxyphenyl)methanone] | 3140 |
| 0.42 | O=C(c1ccc(Nc2ccccc2)cc1)N1CCC(c2ncc[nH]2)CC1 [Example 9, (4-(1H-imidazol-2-yl)piperidin-1-yl)(4-(phenylamino)phenyl)methanone] | 3850 |
| 0.51 | O=C(c1ccc(-c2cccc(Cl)c2)cc1)N1CCC(c2ncc[nH]2)CC1 [Example 10, (4-(1H-imidazol-2-yl)piperidin-1-yl)(3′-chloro-[1,1′-biphenyl]-4-yl)methanone] | 2770 |
| 0.31 | O=C(c1ccc(-c2ccc(C(F)F)cc2)cc1)N1CCC(c2ncc[nH]2)CC1 [Example 16, (4-(1H-imidazol-2-yl)piperidin-1-yl)(4′-(difluoromethyl)-[1,1′-biphenyl]-4-yl)methanone] | 2740 |
| 0.04 | O=C(c1ccc(-c2cccc3[nH]ccc23)cc1)N1CCC(c2ncc[nH]2)CC1 [Example 17, (4-(1H-imidazol-2-yl)piperidin-1-yl)(4-(1H-indol-4-yl)phenyl)methanone] | 5870 |
| 0.01 | O=C(c1ccc(-n2ccc3ccccc32)cc1)N1CCC(c2ncc[nH]2)CC1 [Example 18, (4-(1H-imidazol-2-yl)piperidin-1-yl)(4-(1H-indol-1-yl)phenyl)methanone] | 3400 |
| 0.01 | O=C(c1ccc(-c2cccc3c2OCO3)cc1)N1CCC(c2ncc[nH]2)CC1 [Example 20, (4-(1H-imidazol-2-yl)piperidin-1-yl)(4-(benzo[d][1,3]dioxol-4-yl)phenyl)methanone] | 3390 |
